Tested on: Plasmodium falciparum
Assay: GSK_TCMDC: Inhibition of Plasmodium falciparum 3D7 in whole erythrocytes, using parasite LDH activity as an index of growth.
Format: functional, organism-based
Conditions: Plasmodium falciparum, 3D7

SMILES	XC50 [nM]
CN1CCN(c2ccc(Nc3c4ccccc4nc4ccccc34)cc2)CC1	645
CCc1nc(N)nc(N)c1-c1cccc(Cl)c1	193
CC(=O)N/N=C/[C@H](CCc1ccccc1)NC(=O)[C@H](CC(C)C)NC(=O)c1cccc(OCCN2CCOCC2)c1	236
Cc1c(Cl)cccc1S(=O)(=O)Nc1cccc(CCN2CCC(N3CCCCC3)CC2)c1	830
CCN(CC)CCNc1ccnc2[nH]c3ccc([N+](=O)[O-])cc3c12	198
Cc1nc(Nc2ccc(C)c(Cl)c2)c2c(C)noc2n1	886
CCCC(CNCc1ccccc1)CNc1cc(=O)c2ccccc2[nH]1 (centres undefined)	1020
O=C(c1ccc([N+](=O)[O-])o1)N1CCN(c2ccccc2)CC1	40
CC[C@@H]([C@@H](Cc1cc2ccccc2s1)C(=O)N[C@@H](CCCCNC(=O)OCc1ccccc1)C(=O)Nc1ccccn1)N(O)C=O	227
CN1CCc2cc(I)c(O)cc2C1Cc1ccccc1Cl (centres undefined)	788
CCn1c(-c2nonc2N)nc2c(Cl)ncc(O[C@H](CCN)c3ccccc3F)c21	1460
Fc1cc(Cl)ccc1Nc1ccnc2cc(-c3ccc(CN4CCOCC4)o3)ccc12	639
CN(C)CCOc1cc(NC(=O)Nc2ccc(-c3ccccc3)cc2Cl)ccc1I	245
CNc1cc(-c2ccc3ccnc(N)c3c2)nc(N)n1	119
O=C(/C=C/c1ccc(Cl)c(Cl)c1)N1CCC(CCN2CCc3[nH]c4ccccc4c3C2)CC1	886
N#CCCn1nc(-c2ccc(Cl)cc2)c2c(c1=O)CCCC2	892
COc1ccc(CC(C)NCC(O)c2cccc(C(F)(F)F)c2)cc1F (centres undefined)	827
COc1ccc2nccc(N3CCC(O)(CCNCc4ccc5c(n4)NC(=O)CS5)CC3)c2n1	648
CC(=O)Nc1cccc(C(=O)Nc2cccc(-c3cccc(-c4nc5cc(F)ccc5[nH]4)c3)c2)c1	549
Clc1ccc2c(NN=Cc3cccnc3)ccnc2c1	696
COc1ccc(C=NN=c2cc(C)[nH]c3ccccc23)c(OC)c1	616
O=C(/C=C/c1ccccc1Cl)Nc1ccc(Br)c(OCCN2CCCCC2)c1	168
CC(C)C(=O)ONC1=NC(=N)N(OCCCOc2cc(Cl)c(Cl)cc2Cl)C(C)(C)N1	3.2
CC(Cc1ccc(OCCCCOc2ccccc2)cc1)NCCc1ccc(Oc2ccccc2)cc1 (centres undefined)	812
O=C(NC1CCC(CN2CCC(c3c[nH]c4ccccc34)CC2)CC1)c1cn(Cc2ccccc2)c2ccccc12 (centres undefined)	1130

SMILES	XC50 [nM]
NC(=O)c1ccc(NC(=O)CN(Cc2ccc(Cl)cc2)S(=O)(=O)c2ccccc2)cc1	653
Cc1[nH]c(C)c(-c2ccc(OCc3ccccc3)cc2)c(=O)c1Br	280
Nc1cc(-c2ccc(Br)cc2O)nc2ccccc12	619
Nc1nc(N)c2c(ccc3[nH]c(-c4ccccc4Cl)nc32)n1	231
Cc1cc(N[C@@H](Cc2ccccc2)C(=O)NCCOc2ccccc2)nc(NCCc2ccccc2)n1	1030
CC(=O)N(Cc1ccccc1-c1cccc(CNCc2ccc3c(c2)OCO3)c1)C1CCN(Cc2ccccc2)CC1	1050
CN1CC[C@H](N(Cc2ccccc2F)c2ccc(C#N)c(Cl)c2)C1	1270
Cc1cc(NCC2CCN(CC3CCCCC3)C2)nc(Nc2ccc(Br)cc2)n1 (centres undefined)	879
CCCCc1cc(NCc2ccncc2)nc(Nc2ccccc2)n1	843
O=C(/C=C/c1ccc(Cl)c(Cl)c1)NCCCCCN1CCC(NS(=O)(=O)c2cc(Cl)cc(Cl)c2)CC1	1240
CC(=O)c1ccc(NC(=O)Nc2ccc3nccc(N4CCN(C)CC4)c3c2)cc1	432
CC1(C)N=C(N)N=C(Nc2ccc(Cl)cc2)N1	336
COc1ccccc1C(=O)Nc1ccc(Nc2nc(C)cc(N3CCOCC3)n2)cc1	528
COc1c(C(=O)NC2CCN(Cc3ccccc3)C2)cnc2ccccc12 (centres undefined)	956
Cc1cc(N[C@@H](Cc2ccccc2)C(=O)Nc2ccccc2)nc(Nc2ccccc2)n1	1010
c1ccc2[nH]c(-c3ccc(-c4ccc(CN5CCN(CCN6CCOCC6)CC5)cc4)cc3)nc2c1	158
CCN(CC)CC(O)c1cc(-c2ccc(OC)cc2)nc2cc(Cl)ccc12 (centres undefined)	67.1
FC(F)(F)c1ccc2[nH]ccc(=NN=Cc3cccnc3)c2c1	625
CC(C)NCc1cccc(-c2cccc(-c3nc4cc(F)ccc4[nH]3)c2)c1	285
Oc1ccc(CCNc2nc(NCc3ccccc3-c3ccc(F)cc3)nc(N3CCNCC3)n2)cc1	1070
Cc1ccc(S(=O)(=O)NC2=NC(=N)N(OCc3ccc(Cl)c(Cl)c3)C(C)(C)N2)cc1	1140
CN1CCCN(Cc2cccc(-c3ccc(CNC(=O)c4cccc(Cl)c4)c(F)c3)c2)CC1	190
CCOC(=O)c1ccc(NC(=O)c2ccccc2C(=O)O)cc1	922
O=C(Nc1ccc(-c2csc(-c3nc4ccccc4[nH]3)c2)cc1)Nc1ccc(Cl)c(Cl)c1	402
CCCNCc1ccc(-c2ccc(CN(CCOC)C(=O)c3cnc(C)cn3)cc2)nc1	1250

SMILES	XC50 [nM]
CCCc1cc(=O)[nH]c(-n2nc(C)cc2NC(=O)c2cc3ccccc3o2)n1	1110
Nc1cccc(CNCc2cccc(-c3ccc(-c4nc5ccccc5[nH]4)s3)c2)c1	604
O=C(Nc1ccc(Cl)cc1)N1CCN(C2CCCCC2)CC1	986
CN(C)CCN(C)Cc1ccc(-c2ccc(NS(=O)(=O)c3cccc4cccnc34)cc2)cc1	864
Cc1[nH]c2ccc(NS(C)(=O)=O)cc2c1C1CCN(CC2CCN(C(=O)/C=C/c3ccc(Cl)c(Cl)c3)CC2)CC1	684
O=C(/C=C/c1ccc(Cl)c(Cl)c1)N1CCC(CCN2CCC(c3nc4cc(O)ccc4[nH]3)CC2)CC1	344
S=C(NCCCCCN1CCC(c2c[nH]c3ccccc23)CC1)Nc1ccc(Cl)c(Cl)c1	709
COc1ccccc1Cn1ccnc1SCC(=O)Nc1cccc(C(F)(F)F)c1	907
CCOc1ccc2nc(N(CCCn3ccnc3)C(=O)C=Cc3cccs3)sc2c1	777
CN(C)CCC1CCCc2ccc(NC(=O)Nc3ccc(-c4ccncc4)c4ccccc34)cc21 (centres undefined)	1070
C=CCOc1ccc(CNC2CCN(Cc3ccccc3)CC2)cc1Br	1420
CN1CCN(CCCN(Cc2cccc(-c3ccc(CNCCc4ccccc4)cc3)c2)C(=O)c2cccs2)CC1	716
COc1ccc(-c2ccc(NC(=O)c3cccc(F)c3)cc2)cc1CN1CCCN(C)CC1	672
Cc1ccc(Cn2nc(Cl)c(N3CCCNCC3)cc2=O)cc1NC(=O)Nc1ccc(-c2ccccc2)cc1	667
CC1CCCN(S(=O)(=O)c2ccc(NC(=O)c3cc(-c4ccccc4O)n[nH]3)cc2)C1 (centres undefined)	757
CNC(=O)COc1ccc(Nc2nnc(-c3ccc(C)c(S(=O)(=O)NCC4CCCO4)c3)c3ccccc23)cc1 (centres undefined)	933
Cc1nnc2c(NC(=O)NC3CCCC3)cc3ccc(-c4cccc(CN(C)C)c4)cc3n12	1160
c1ccc(CNCc2ccc(-c3ccc(-c4nc5ccccc5[nH]4)cc3)cc2)cc1	338
COc1ccc2nccc([C@@H](O)CN3CCC(NCCNc4cccc(F)c4)CC3)c2c1	176
COc1ccccc1Cc1c(C)nc2nc(N)nc(N)c2c1C	569
COC(=O)c1ccc(CC(C)NCC(O)c2ccc(F)c(Cl)c2)cc1 (centres undefined)	863
N=C(N)Nc1nccc(NCc2ccccc2)n1	895
O=C(Nc1ccc(-c2nc3ccccc3[nH]2)cc1)C1CCN(Cc2ccc(F)cc2)CC1	838
CCNc1cc(C(=O)N[C@@H](Cc2cc(F)cc(F)c2)[C@H](O)CNCc2cccc(C(F)(F)F)c2)cc(N2CCCCS2(=O)=O)c1	613
CCOC(=O)c1c(CN2CCCC2)n(-c2ccccc2)c2cc(Br)c(O)cc12	1010

SMILES	XC50 [nM]
O=C(Nc1ccc(N2CCN(Cc3ccccc3Cl)CC2)cc1)c1ccc([N+](=O)[O-])o1	975
Cc1cc(N[C@@H](Cc2ccccc2)C(=O)NCCOc2ccccc2)nc(NCCOc2ccccc2)n1	1360
Cc1cccc(CN2CCCC3(CCN(Cc4ccccc4O)C3)C2)c1 (centres undefined)	801
Cc1cccc2nc(-c3ccc(-c4cccc(CNCc5ccc(CN)cc5)c4)s3)[nH]c12	606
CCCS(=O)(=O)N1CCC(CO)(Cc2ccccc2C(F)(F)F)CC1	885
COc1cc(-c2nc(-c3ccncc3)c(-c3ccc4c(c3)CCC4=NO)[nH]2)ccc1OCCN1CCCCC1	789
Cc1ccc2c(=NN=CC=Cc3ccccc3)cc(C)[nH]c2c1	1120
CC(C)(C)c1ccc(NC(=O)N[C@@H]2CCN(c3ccnc4ccccc34)C2)cc1	350
COc1cccc(CNC(=O)c2cc(CNCc3ccccc3)ccc2-c2cccc(CNCc3ccc(-c4ccccc4)cc3)c2)c1	847
O=C(Nc1ccc(Cl)cc1)Nc1ccc(OCC(O)CN2CCCCC2)cc1 (centres undefined)	1160
CC(C)N1CCN(c2ccc(OCCCN3CCN(c4cccc(Cl)c4Cl)CC3)c(C(F)(F)F)c2)CC1	810
COc1cccc(-c2csc(C(=O)NCC3CCN(Cc4ccc(C(C)(C)C)cc4)C3)c2)c1 (centres undefined)	1180
CN1CCCC1CCNc1ncc2c(-c3ccc(NC(=O)Nc4cc(C(F)(F)F)ccc4F)c(F)c3)nn(C)c2n1 (centres undefined)	287
Cn1nccc1C(=O)NCCNCc1cccc(-c2cccc(-c3nc4cc(C(F)(F)F)ccc4[nH]3)c2)c1	172
COc1cccc(-c2cc(C(F)(F)F)n3ncc(C(=O)Nc4cc(Cl)ccc4O)c3n2)c1	203
C=CCc1cc(C2CCN(CCCCNC(=O)c3ccc(-c4ccc(C#N)cc4)cc3)CC2)c(OCC(N)=O)c2c1CCCC2	799
COC(=O)c1c(C#N)c(OC)cc(O)c1CSC[C@H](Nc1nc(-c2ccc([N+](=O)[O-])cc2)cs1)C(=O)NCCN1CCCCC1	1060
c1ccc(CCNc2nc(NCC(c3ccccc3)c3ccccc3)c3nc[nH]c3n2)cc1	617
Cc1ccc2nc(-c3ccc(C(=O)NC4CCN(Cc5ccccc5)CC4)cc3)[nH]c2c1C	729
CCCCCN1CCCC1CNS(=O)(=O)c1cccc(C(=O)Nc2cccc(C(F)(F)F)c2)c1 (centres undefined)	770
O=C(NC1CCN(CCN2CCc3ccccc3CC2)CC1)c1ccc(-c2ccc(C(F)(F)F)cc2)cc1	935
Cc1cccc2nc(-c3ccc(-c4cccc(NCc5cn6cccnc6n5)c4)cc3)[nH]c12	787
O=S(=O)(NC1CCN(c2ccnc3cc(Cl)ccc23)C1)c1cccc(F)c1 (centres undefined)	486
CCN(Cc1cccc2ccccc12)c1ccc2nc(N)nc(N)c2c1	3.2
